From patent EP0430983B1, “USE OF CASTANOSPERMINE AS AN ANTI-INFLAMMATORY AND IMMUNOSUPPRESSANT AGENT” (THE AUSTRALIAN NATIONAL UNIVERSITY, priority 1988, dated 1990)
Values joined by “and” are separate entries in the source; they are usually repeats but may differ in a detail not shown here. Equal entries are not always repeated.

Tests used:
passive EAE = test: Passively induced experimental allergic encephalomyelitis (passive EAE), clinical grading and CNS histology; assay type: in vivo, Lewis (RT-1') rats; settings: for protection against clinical EAE: osmotic pump implanted at time of cell transfer; for mean clinical score: score out of possible 5 ± standard errors
[1] = Preliminary toxicity studies; assay type: in vivo; settings: 500 mg/kg/day for 7 days; animals observed for a 6 week period after treatment; data not shown
[2] = tested on: passively induced adjuvant arthritis; test: Passively induced adjuvant arthritis, change in foot volume; assay type: in vivo, (DAxLewis)F₁ rats; settings: for % Δ in foot volume: 350 mg/kg/day s.c. osmotic pump from cell transfer, individual rats, 350 mg/kg/day
Description: (DAxLewis)F₁ rats were immunized with 3mg M.butyricum in light mineral oil injected intradermally in both hind feet. Ten days later spleens were removed and made into a single cell suspension in RPMI containing 5% fetal calf serum, 200mM L Glutamine, 5 x 10⁻ ⁵M 2-ME, penicillin and streptomycin. Cells were adjusted to 2 x 10⁶ cells/ml, and cultured in 50ml media in 75mm culture flasks. ConA was added at 2µg/ml and cultures incubated for 72hrs at 37°C in an atmosphere of 10% CO₂, 7% O₂ and the balance N₂. Cells were then washed and transferred at 50 x 10⁶ or 60 x 10⁶ cells/rat i.v. into 10 weeks old male (DAxLewis)F₁.
Castanospermine was put in osmotic pumps (Alza Corp.) which delivered 5µl/hr for 14 days. Pumps were implanted subcutaneously at the time of cell transfer. Rats received 350mg/kg/day of castanospermine.
Hind feet of rats were measured in 4 diameters beginning the day of cell transfer. The measurements are averaged and expressed as % change in volume of feet.
Two experiments have been performed both treating rats with 350mg/kg/day castanospermine beginning the day of cell transfer.

pancreatic islets = test: Transplantation of allogeneic pancreatic islets, graft rejection by blood glucose; assay type: in vivo, CBA mice
Description: Donor mice were Balb/c (H2^d) and recipients were CBA (H2^k). Donor pancreatic islets were prepared using standard techniques. Approximately 400 islets were isolated from 10 donor mice. These freshly isolated islets, in groups of 50, were placed into CBA blood clots and these were placed under the kidney capsule of CBA mice which were diabetic (blood glucose 20mM/litre).
Two recipients were implanted (subcutaneously) with miniosmotic pumps containing CS at the time of islet transplantation. These pumps delivered CS at a dose of 300 mg/kg/mouse/day for a period of 14 days. Two control mice were sham operated.
Blood samples (10µl) were taken daily and assayed for blood glucose using an automatic analyser (Beckman Glucose Analyzer 2).
All transplant recipients became normoglycaemic within 24 hours indicating successful transplantation of all of the grafts. Rejection of grafts was assumed to occur when animals became hyperglycaemic. Control animals rejected on days 9 and 12.

renal allografts = test: Renal allograft survival; assay type: in vivo, DA rats; settings: pump; for No. of rats surviving more than 14 days: DA rats with (DA/LEW) renal allografts; for No. of days of Survival: the rat surviving more than 14 days
Description: One kidney from each rat was replaced with a donor kidney, after which the remaining original rat kidney was removed. The results are set out in Table 5 below: Table 5

[3] = tested on: Delayed hypersensitivity (DTH); test: Delayed hypersensitivity (DTH) to sheep red blood cells, foot swelling; assay type: in vivo, C57BL mice; settings: CS ip every 4 hours from footpad testing, total 300 mg/kg/mouse over 24 hrs; 5 mice/group; control group 33%
Description: C57BL mice were given 10⁸ sheep red blood cells (SRBC) intravenously. Five days later 10⁵ SRBC in a volume of […] was injected into the left hind footpad and […] saline into the right. Castanospermine was given every 4 hours ip beginning at the time of footpad testing. Total dose of CS over 24 hrs was 300 mg/kg/mouse. Control mice were given saline every 4 hours, and 5 mice/group were used in both test and control groups.

[4] = Table 1, CS 100 mg/kg/day, s.c. miniosmotic pump at time of cell transfer
[5] = Table 1, CS 200 mg/kg/day, s.c. miniosmotic pump at time of cell transfer

O[C@H]1[C@H](O)[C@@H](O)CN2CC[C@H](O)[C@H]12 [CS, Castanospermine]
protection against clinical EAE (passive EAE; 100 mg/kg/day): no protective effect | protection against clinical EAE (passive EAE; 200 mg/kg/day): only partial protection | number of inflammatory lesions in CNS tissues (histology) (passive EAE; 300 mg/kg/day from cell transfer, rats killed at day 8, compared with untreated rats): approximately the same number of inflammatory lesions as untreated rats | protection against clinical EAE (passive EAE; 300 mg/kg/day): complete protection | mean day of onset (passive EAE; [4]): 4±0 | mean clinical score (passive EAE; [4]): 4.0±0 | animals with EAE (passive EAE; Table 1, CS 100 mg/kg/day, s.c. miniosmotic pump placed at time of cell transfer): 4/4 | mean day of onset (passive EAE; [5]): 5±0 | mean clinical score (passive EAE; [5]): 2.0±0 | animals with EAE (passive EAE; Table 1, CS 200 mg/kg/day, s.c. miniosmotic pump placed at time of cell transfer): 4/4 | animals with EAE (passive EAE; Table 1, CS 300 mg/kg/day, s.c. miniosmotic pump placed at time of cell transfer): 0/4 | animals with EAE (passive EAE; Table 2, convalescent rats (compromised blood-brain barrier), CS 300 mg/kg/day, s.c. miniosmotic pump at time of secondary cell transfer): 0/4 | animals with EAE (passive EAE; Table 2, naive rats, CS 300 mg/kg/day, s.c. miniosmotic pump at time of cell transfer): 0/4 | animals with EAE (passive EAE; Table 3, experiment 1, CS 150 mg/kg i.p., 12 hourly, initiated on day 4 (before clinical signs), for 3 days): 0/3 | animals with EAE (passive EAE; Table 3, experiment 2, CS 150 mg/kg i.p., 12 hourly, initiated on day 4 (after onset of signs)): 3/3 | mean clinical score (passive EAE; Table 3, experiment 2, CS 150 mg/kg i.p., 12 hourly, initiated on day 4): 4±0 | animals with EAE (passive EAE; Table 3, experiment 3, CS 300 mg/kg osmotic pump, initiated on day 4 (after onset of signs)): 5/5 | mean clinical score (passive EAE; Table 3, experiment 3, CS 300 mg/kg osmotic pump, initiated on day 4): 4±0 | clinical signs of EAE with delayed treatment (passive EAE; exp.1, two 150 mg/kg i.p. injections daily from 4 days after cell transfer for 3 days, signs in untreated animals not apparent until day 6): did not develop clinical signs of EAE | clinical signs of EAE with delayed treatment (passive EAE; exp.3, osmotic pumps implanted on day 4 after cell transfer, all animals showed mild clinical signs on day 4): failed to modify subsequent disease expression | second episode of passively induced EAE (passive EAE; rats recovered from one episode, pump delivering 300 mg/kg/day on the day of secondary transfer): did not develop a second episode of the disease | toxic effect [1]: no apparent toxic effect | % Δ in foot volume ([2]; Exp 1, 50 x 10^6 cells, Day 7): -5% and 5% and 0% and +12% | % Δ in foot volume ([2]; Exp 1, 50 x 10^6 cells, Day 14): -1% and 0% and +9% and +4% | inflammation of feet ([2]; Exp 1 and Exp 2, 350 mg/kg/day from cell transfer): In no case did any of the CS treated rats show inflammation | % Δ in foot volume ([2]; Exp 2, 60 x 10^6 cells, Day 7): -5% and -7% and -3% and +3% | % Δ in foot volume ([2]; Exp 2, 60 x 10^6 cells, Day 14): -8% and -18% and -14% and -1% | swelling and inflammation after end of treatment ([2]; Exp 2, pumps removed on day 15, animals followed out to day 28+): remained normal | day of graft rejection (hyperglycaemia) (pancreatic islets; Balb/c islets in diabetic CBA mice, 300 mg/kg/mouse/day s.c. miniosmotic pump for 14 days, one mouse, controls rejected on days 9 and 12): 19 days | day of graft rejection (hyperglycaemia) (pancreatic islets; other CS treated mouse, whose miniosmotic pump was found not to have delivered its CS payload): 12 days | No. of rats surviving more than 14 days (renal allografts; 100mg/kg, 9 rats): 1 | No. of days of Survival (renal allografts; 100mg/kg): 100 days | No. of rats surviving more than 14 days (renal allografts; 250mg/kg, 7 rats): 1 | No. of days of Survival (renal allografts; 250mg/kg): 33 days | increase in foot swelling [3]: 11%
